Where two headings read alike, the source gives them in different places.
Tested on: HSP47
Conditions: rat stellate cells; for % of Expression at Dose (nM) 18 nM: siRNA 18 nM; for % of Expression at Dose (nM) 75 nM: siRNA 75 nM; for % of Expression at Dose (nM) 300 nM: siRNA 300 nM
Experimental: The in vitro activity for gene expression knockdown using an siRNA was measured using rat stellate cells in DMEM medium according to the following protocol: One day before the transfection, plate the cells in a 96-well plate at 3×10^3 cells per well for Stellate cells with 100 μl of medium containing 10% FBS and culture in a 37° C. incubator containing a humidified atmosphere of 5% CO2 in air. Before transfection, change medium to 90 μl of medium without antibiotics. Prepare the appropriate dilutions of the solution collected from the tubing in PBS buffer so that the addition of 10 μl into each well is sufficient to reach the desired concentration. 48 hours after transfection, wash the cells once with ice-cold PBS. Lyse the cells with 50 μl of Cell-to-Ct Lysis Buffer for 5-30 minutes at ambient temperature. Add 5 μl of Stop Solution and incubate for 2 minutes at ambient temperature. Measure mRNA level by qPCR with TAQMAN immediately. Alternatively, the samples can be frozen at −80° C. and assayed at later times. For qRT-PCR assay: Thaw all reagents on ice. Mix the pooled reagents in 0.2 ml PCR tubes. Dispense the set-up mixture into 384 well plate, 10 μl/well×3. Seal the plate with film, spin down mixture into the bottom of wells. Perform qRT-PCR assay.
In this example, an HSP47 siRNA was used to knockdown HSP47 gene. For TaqMan gene expression assays, HSP47 gene specific TaqMan probe was used.

Compound | % of Expression at Dose (nM) 18 nM (Table 3) | % of Expression at Dose (nM) 75 nM (Table 3) | % of Expression at Dose (nM) 300 nM (Table 3) | % of Expression at Dose (nM) 18 nM (Table 4) | % of Expression at Dose (nM) 75 nM (Table 4) | % of Expression at Dose (nM) 300 nM (Table 4)
CCCCCCCC/C=C\CCCCCCCC(=O)OCCN(CCOC(=O)CCCCCCC/C=C\CCCCCCCC)C(=O)CCC(=O)NCCCC[C@H](NC(=O)CCC(=O)N(CCOC(=O)CCCCCCC/C=C\CCCCCCCC)CCOC(=O)CCCCCCC/C=C\CCCCCCCC)C(=O)NCCCOCCOCCOCCCNC(=O)CCOCCOCCOCCOCCOCCC(=O)NCCCOCCOCCOCCCNC(=O)[C@H](CCCCNC(=O)CCC(=O)N(CCOC(=O)CCCCCCC/C=C\CCCCCCCC)CCOC(=O)CCCCCCC/C=C\CCCCCCCC)NC(=O)CCC(=O)N(CCOC(=O)CCCCCCC/C=C\CCCCCCCC)CCOC(=O)CCCCCCC/C=C\CCCCCCCC [Compound S8] | 74% | 64% | 42% |  |  | 
CCC/C=C\C/C=C\CCCCCCCC(=O)OCCN(CCOC(=O)CCCCCCC/C=C\C/C=C\CCCCC)C(=O)CC[C@H](NC(=O)CCC(=O)NCCCOCCOCCOCCOCCOCCCNC(=O)CCC(=O)NC(CCC(=O)N(CCOC(=O)CCCCCCC/C=C\C/C=C\CCCCC)CCOC(=O)CCCCCCC/C=C\C/C=C\CCCCC)C(=O)N(CCOC(=O)CCCCCCC/C=C\C/C=C\CCC)CCOC(=O)CCCCCCC/C=C\C/C=C\CCCCC)C(=O)N(CCOC(=O)CCCCCCC/C=C\C/C=C\CCCCC)CCOC(=O)CCCCCCC/C=C\C/C=C\CCCCC (stereo partly drawn) [Compound T9] |  |  |  | 100% | 65% | 36%
CCCCC/C=C\C/C=C\CCCCCCCC(=O)OCCN(CCOC(=O)CCCCCCC/C=C\C/C=C\CCCCC)C(=O)CCC(=O)NCCC[C@H](NC(=O)CCC(=O)N(CCOC(=O)CCCCCCC/C=C\C/C=C\CCCCC)CCOC(=O)CCCCCCC/C=C\C/C=C\CCCCC)C(=O)NCCCOCCOCCOCCOCCOCCCNC(=O)[C@H](CCCNC(=O)CCC(=O)N(CCOC(=O)CCCCCCC/C=C\C/C=C\CCCCC)CCOC(=O)CCCCCCC/C=C\C/C=C\CCCCC)NC(=O)CCC(=O)N(CCOC(=O)CCCCCCC/C=C\C/C=C\CCCCC)CCOC(=O)CCCCCCC/C=C\C/C=C\CCCCC [Compound T6] |  |  |  | 30% | 12% | 5%
CCCCC/C=C\C/C=C\CCCCCCCC(=O)OCCN(CCOC(=O)CCCCCCC/C=C\C/C=C\CCCCC)C(=O)CCC(=O)NC[C@H](NC(=O)CCC(=O)N(CCOC(=O)CCCCCCC/C=C\C/C=C\CCCCC)CCOC(=O)CCCCCCC/C=C\C/C=C\CCCCC)C(=O)NCCCOCCOCCOCCOCCOCCCNC(=O)[C@H](CNC(=O)CCC(=O)N(CCOC(=O)CCCCCCC/C=C\C/C=C\CCCCC)CCOC(=O)CCCCCCC/C=C\C/C=C\CCCCC)NC(=O)CCC(=O)N(CCOC(=O)CCCCCCC/C=C\C/C=C\CCCCC)CCOC(=O)CCCCCCC/C=C\C/C=C\CCCCC [Compound T7] |  |  |  | 51% | 20% | 8%
CCCCCCCCCCCCCCCC(=O)OCCN(CCOC(=O)CCCCCCCCCCCCCCC)C(=O)CCCC(=O)NCCCC[C@H](NC(=O)CCCC(=O)N(CCOC(=O)CCCCCCCCCCCCCCC)CCOC(=O)CCCCCCCCCCCCCCC)C(=O)NCCCOCCOCCOCCCNC(=O)CCOCCOCCOCCOCCOCCC(=O)NCCCOCCOCCOCCCNC(=O)[C@H](CCCCNC(=O)CCCC(=O)N(CCOC(=O)CCCCCCCCCCCCCCC)CCOC(=O)CCCCCCCCCCCCCCC)NC(=O)CCCC(=O)N(CCOC(=O)CCCCCCCCCCCCCCC)CCOC(=O)CCCCCCCCCCCCCCC [Compound S6] | 97% | 80% | 33% |  |  | 
